Source: PubChem BioAssay (NCI)
Where “and” joins values, the source holds several entries; their conditions need not be identical. Equal entries are not always repeated.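 Assay format: 96-well plates, 48-hour exposure. GI50: concentration for 50% inhibition of growth. The concentration for full growth arrest is given as TGI.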

Tests used:
Test in all cases: growth of human tumour cells (NCI), 48 h
OVCAR-4 ovarian = tested on: OVCAR-4 ovarian
HL-60(TB) leukemia = tested on: HL-60(TB) leukemia
MDA-MB-231 breast = tested on: MDA-MB-231 breast
NCI-H460 lung = tested on: NCI-H460 lung
COLO 205 colon = tested on: COLO 205 colon
M14 melanoma = tested on: M14 melanoma
HOP-62 NSCLC = tested on: HOP-62 NSCLC
SN12C renal = tested on: SN12C renal
SF-539 CNS = tested on: SF-539 CNS
A549 NSCLC = tested on: A549 NSCLC
LOX IMVI melanoma = tested on: LOX IMVI melanoma
MALME-3M melanoma = tested on: MALME-3M melanoma
PC-3 prostate = tested on: PC-3 prostate
BT-549 breast = tested on: BT-549 breast
KM12 colon = tested on: KM12 colon
SNB-75 CNS = tested on: SNB-75 CNS
TK-10 renal = tested on: TK-10 renal
RXF 393 renal = tested on: RXF 393 renal
SF-295 CNS = tested on: SF-295 CNS
MDA-MB-435 = tested on: MDA-MB-435
U251 CNS = tested on: U251 CNS
ACHN renal = tested on: ACHN renal
UACC-257 melanoma = tested on: UACC-257 melanoma
HCT-15 colon = tested on: HCT-15 colon
CCRF-CEM leukemia = tested on: CCRF-CEM leukemia
SF-268 CNS = tested on: SF-268 CNS
NCI-H522 lung = tested on: NCI-H522 lung
HCT-116 colon = tested on: HCT-116 colon
SK-MEL-28 melanoma = tested on: SK-MEL-28 melanoma
SNB-19 CNS = tested on: SNB-19 CNS
UO-31 renal = tested on: UO-31 renal
EKVX NSCLC = tested on: EKVX NSCLC
SR leukemia = tested on: SR leukemia
K-562 leukemia = tested on: K-562 leukemia
NCI-H226 lung = tested on: NCI-H226 lung
DU-145 prostate = tested on: DU-145 prostate
HS 578T breast = tested on: HS 578T breast
CAKI-1 renal = tested on: CAKI-1 renal
786-0 renal = tested on: 786-0 renal
MCF7 breast = tested on: MCF7 breast
SK-MEL-2 melanoma = tested on: SK-MEL-2 melanoma
RPMI-8226 leukemia = tested on: RPMI-8226 leukemia
IGROV1 ovarian = tested on: IGROV1 ovarian
SK-OV-3 ovarian = tested on: SK-OV-3 ovarian
MDA-N = tested on: MDA-N
NCI-H23 lung = tested on: NCI-H23 lung
MOLT-4 leukemia = tested on: MOLT-4 leukemia
T-47D breast = tested on: T-47D breast
UACC-62 melanoma = tested on: UACC-62 melanoma
OVCAR-3 ovarian = tested on: OVCAR-3 ovarian
OVCAR-8 ovarian = tested on: OVCAR-8 ovarian
HOP-92 NSCLC = tested on: HOP-92 NSCLC
SK-MEL-5 melanoma = tested on: SK-MEL-5 melanoma
A498 renal = tested on: A498 renal
SW-620 colon = tested on: SW-620 colon
OVCAR-5 ovarian = tested on: OVCAR-5 ovarian
HT29 colon = tested on: HT29 colon
HCC-2998 colon = tested on: HCC-2998 colon
NCI/ADR-RES ovarian = tested on: NCI/ADR-RES ovarian

SMILES: C[C@H](CCC(=O)O)[C@H]1CC[C@H]2[C@@H]3CC[C@@H]4C[C@H](O)CC[C@]4(C)[C@H]3CC[C@]12C
- GI50 (OVCAR-4 ovarian): > 100 µM and 32 µM
- TGI (OVCAR-4 ovarian): > 100 µM and 84.5 µM
- GI50 (HL-60(TB) leukemia): > 100 µM and 15.1 µM
- TGI (HL-60(TB) leukemia): > 100 µM and 32.8 µM
- GI50 (MDA-MB-231 breast): > 100 µM and 28.3 µM
- TGI (MDA-MB-231 breast): > 100 µM and 73.2 µM
- GI50 (NCI-H460 lung): > 100 µM and 18.2 µM
- TGI (NCI-H460 lung): > 100 µM and 32.3 µM
- GI50 (COLO 205 colon): > 100 µM and 25.5 µM
- TGI (COLO 205 colon): > 100 µM and 54.6 µM
- GI50 (M14 melanoma): > 100 µM and 17.3 µM
- TGI (M14 melanoma): > 100 µM and 42 µM
- GI50 (HOP-62 NSCLC): > 100 µM and 28.2 µM
- TGI (HOP-62 NSCLC): > 100 µM and 73.8 µM
- GI50 (SN12C renal): > 100 µM and 20.8 µM
- TGI (SN12C renal): > 100 µM and 56.1 µM
- GI50 (SF-539 CNS): > 100 µM and 27.6 µM
- TGI (SF-539 CNS): > 100 µM and 61 µM
- GI50 (A549 NSCLC): > 100 µM and 18.4 µM
- TGI (A549 NSCLC): > 100 µM and 46.2 µM
- GI50 (LOX IMVI melanoma): > 100 µM and 28.9 µM
- TGI (LOX IMVI melanoma): > 100 µM and 80.3 µM
- GI50 (MALME-3M melanoma): > 100 µM and 40.2 µM
- TGI (MALME-3M melanoma): > 100 µM and 74.1 µM
- GI50 (PC-3 prostate): > 100 µM and 23.9 µM
- TGI (PC-3 prostate): > 100 µM and 57.6 µM
- GI50 (BT-549 breast): > 100 µM and 28.4 µM
- TGI (BT-549 breast): > 100 µM and 74.7 µM
- GI50 (KM12 colon): > 100 µM and 24.4 µM
- TGI (KM12 colon): > 100 µM and 67.2 µM
- GI50 (SNB-75 CNS): 44.6 µM and 24.6 µM
- TGI (SNB-75 CNS): > 100 µM and 59.4 µM
- GI50 (TK-10 renal): > 100 µM and 33.6 µM
- TGI (TK-10 renal): > 100 µM and 83.3 µM
- GI50 (RXF 393 renal): > 100 µM and 26 µM
- TGI (RXF 393 renal): > 100 µM and 62.4 µM
- GI50 (SF-295 CNS): > 100 µM and 37.2 µM
- TGI (SF-295 CNS): > 100 µM
- GI50 (MDA-MB-435): > 100 µM and 22.6 µM
- TGI (MDA-MB-435): > 100 µM and 50.8 µM
- GI50 (U251 CNS): > 100 µM and 21.3 µM
- TGI (U251 CNS): > 100 µM and 43.7 µM
- GI50 (ACHN renal): > 100 µM and 37.8 µM
- TGI (ACHN renal): > 100 µM
- GI50 (UACC-257 melanoma): > 100 µM and 28.3 µM
- TGI (UACC-257 melanoma): > 100 µM and 67.6 µM
- GI50 (HCT-15 colon): > 100 µM and 23.5 µM
- TGI (HCT-15 colon): > 100 µM and 62.3 µM
- GI50 (CCRF-CEM leukemia): > 100 µM
- TGI (CCRF-CEM leukemia): > 100 µM
- GI50 (SF-268 CNS): > 100 µM and 36 µM
- TGI (SF-268 CNS): > 100 µM
- GI50 (NCI-H522 lung): > 100 µM and 25.5 µM
- TGI (NCI-H522 lung): > 100 µM and 54.5 µM
- GI50 (HCT-116 colon): > 100 µM and 18.4 µM
- TGI (HCT-116 colon): > 100 µM and 33.2 µM
- GI50 (SK-MEL-28 melanoma): > 100 µM and 27 µM
- TGI (SK-MEL-28 melanoma): > 100 µM and 85.3 µM
- GI50 (SNB-19 CNS): > 100 µM and 24.3 µM
- TGI (SNB-19 CNS): > 100 µM and 90.7 µM
- GI50 (UO-31 renal): > 100 µM and 14.3 µM
- TGI (UO-31 renal): > 100 µM and 27.3 µM
- GI50 (EKVX NSCLC): > 100 µM and 20 µM
- TGI (EKVX NSCLC): > 100 µM and 69 µM
- GI50 (SR leukemia): > 100 µM and 14.6 µM
- TGI (SR leukemia): > 100 µM and 32.8 µM
- GI50 (K-562 leukemia): > 100 µM and 17.4 µM
- TGI (K-562 leukemia): > 100 µM and 43.8 µM
- GI50 (NCI-H226 lung): > 100 µM and 37 µM
- TGI (NCI-H226 lung): > 100 µM
- GI50 (DU-145 prostate): 86.7 µM and 30 µM
- TGI (DU-145 prostate): > 100 µM and 87.7 µM
- GI50 (HS 578T breast): > 100 µM and 33.3 µM
- TGI (HS 578T breast): > 100 µM and 65.8 µM
- GI50 (CAKI-1 renal): > 100 µM and 22.2 µM
- TGI (CAKI-1 renal): > 100 µM and 47.1 µM
- GI50 (786-0 renal): > 100 µM and 31.8 µM
- TGI (786-0 renal): > 100 µM
- GI50 (MCF7 breast): > 100 µM and 36.5 µM
- TGI (MCF7 breast): > 100 µM
- GI50 (SK-MEL-2 melanoma): > 100 µM and 21.5 µM
- TGI (SK-MEL-2 melanoma): > 100 µM and 45.6 µM
- GI50 (RPMI-8226 leukemia): > 100 µM and 22.9 µM
- TGI (RPMI-8226 leukemia): > 100 µM and 52.7 µM
- GI50 (IGROV1 ovarian): > 100 µM and 40 µM
- TGI (IGROV1 ovarian): > 100 µM
- GI50 (SK-OV-3 ovarian): > 100 µM and 40.3 µM
- TGI (SK-OV-3 ovarian): > 100 µM
- GI50 (MDA-N): > 100 µM and 19.9 µM
- TGI (MDA-N): > 100 µM and 46.3 µM
- GI50 (NCI-H23 lung): > 100 µM and 17.9 µM
- TGI (NCI-H23 lung): > 100 µM and 33.7 µM
- GI50 (MOLT-4 leukemia): > 100 µM and 21.5 µM
- TGI (MOLT-4 leukemia): > 100 µM and 52.3 µM
- GI50 (T-47D breast): > 100 µM and 19.9 µM
- TGI (T-47D breast): > 100 µM and 46.1 µM
- GI50 (UACC-62 melanoma): > 100 µM and 35.3 µM
- TGI (UACC-62 melanoma): > 100 µM
- GI50 (OVCAR-3 ovarian): > 100 µM and 19 µM
- TGI (OVCAR-3 ovarian): > 100 µM and 33.3 µM
- GI50 (OVCAR-8 ovarian): > 100 µM and 41.3 µM
- TGI (OVCAR-8 ovarian): > 100 µM
- GI50 (HOP-92 NSCLC): > 100 µM and 34.1 µM
- TGI (HOP-92 NSCLC): > 100 µM and 99.2 µM
- GI50 (SK-MEL-5 melanoma): > 100 µM and 18.3 µM
- TGI (SK-MEL-5 melanoma): > 100 µM and 35.3 µM
- TGI (A498 renal): > 100 µM
- GI50 (SW-620 colon): > 100 µM and 27 µM
- TGI (SW-620 colon): > 100 µM and 78.7 µM
- GI50 (OVCAR-5 ovarian): > 100 µM and 20.7 µM
- TGI (OVCAR-5 ovarian): > 100 µM and 60.3 µM
- GI50 (HT29 colon): > 100 µM and 21.6 µM
- TGI (HT29 colon): > 100 µM and 57.7 µM
- GI50 (HCC-2998 colon): > 100 µM and 19.8 µM
- TGI (HCC-2998 colon): > 100 µM and 40.2 µM
- GI50 (NCI/ADR-RES ovarian): > 100 µM and 29.3 µM
- TGI (NCI/ADR-RES ovarian): > 100 µM and 82.4 µM
